Test results as given in US6596705B1, “Inhibition of L-selectin and P-selection mediated binding using heparin” (The Regents of the University of California, priority 1998, dated 2003).

Columns and labels:
P-selectin = assay: ELISA inhibition of P-selectin binding to immobilized SLe^x; conditions: average of 2-3 experiments, concentration from assumed average molecular weight
Experimental: (§1) ELISA inhibition assays were performed as previously reported (O'Connell et al., Proc. Natl. Acad. Sci. USA 93:5883-5887 (1996); Koenig et al., supra, 1997). Sterile 96 well ELISA plates were coated with 200 ng of polyacrylamide-SLe^x (Glycotech; Rockville Md.) by overnight incubation at […] in 100 μl of 50 mM sodium carbonate/bicarbonate buffer, pH 9.5. Plates were blocked for at least 2 hours at 4° C. with 200 μl of 20 mM Hepes, 125 mM NaCl, 2 mM CaCl2, 2 mM MgCl2, 1% protease-free BSA, pH 7.45 (osmolarity 290 milliosmoles) per well. During the blocking step, the selectin-Rg chimeras were separately preincubated at 4° C. with a peroxidase-conjugated goat anti-human IgG secondary antibody (Jackson Immunoresearch Laboratories, Inc.; West Grove Pa.) in assay buffer for approximately 1 hour.
(§2) Final selectin-Rg concentration was 20 nM, and the secondary antibody dilution was 1:1000. […]
(§3) These tubes were preincubated at 4° C. for 30 minutes, then added to ELISA plates, in duplicates, to a well volume of 100 μl. […] The absorbance at 492 nm was determined using SOFTMAX software and a microplate reader (Molecular Devices Inc., Menlo Park Calif.). Prior to curve fitting, the absorbance values were converted into percentages for comparative purposes using the formula: ({(average of duplicates)−(negative control)}/{(positive control)−(negative control)})×100) using the SOFTMAX software.

L-selectin = assay: ELISA inhibition of L-selectin binding to immobilized SLe^x; conditions: average of 2-3 experiments, concentration from assumed average molecular weight
Sequence of L-selectin (P14151 39-318 limits assumed): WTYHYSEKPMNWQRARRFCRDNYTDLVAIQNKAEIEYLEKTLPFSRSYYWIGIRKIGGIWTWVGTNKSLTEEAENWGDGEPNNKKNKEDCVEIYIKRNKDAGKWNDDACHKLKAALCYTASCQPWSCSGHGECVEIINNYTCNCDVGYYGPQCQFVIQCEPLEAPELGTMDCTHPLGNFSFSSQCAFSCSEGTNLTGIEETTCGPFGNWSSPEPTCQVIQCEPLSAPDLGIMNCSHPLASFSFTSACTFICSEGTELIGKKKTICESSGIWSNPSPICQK
Experimental: as §1, §2, §3

Sequence of P-selectin (P16109 42-195 limits assumed): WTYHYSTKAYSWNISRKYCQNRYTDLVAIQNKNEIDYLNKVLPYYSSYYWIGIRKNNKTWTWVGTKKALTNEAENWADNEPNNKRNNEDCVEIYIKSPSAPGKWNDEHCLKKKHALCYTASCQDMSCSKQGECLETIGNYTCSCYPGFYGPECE

IC50 (P-selectin): 520 µM
IC50 (L-selectin): 600 µM
Substance: Siao2-3 Galβ1-4 (Fucal-3) GlcNAc [Sialyl Lewis^x]
